{
  "source": "paper PMC5595280",
  "about": "“Cytotoxicity and anti-tumor effects of new ruthenium complexes on triple negative breast cancer cells” (PLoS ONE, 2017)",
  "key": {"[1]": {"target": "HSA (Homo sapiens, UniProt P02768)", "sequence (P02768 25-609)": "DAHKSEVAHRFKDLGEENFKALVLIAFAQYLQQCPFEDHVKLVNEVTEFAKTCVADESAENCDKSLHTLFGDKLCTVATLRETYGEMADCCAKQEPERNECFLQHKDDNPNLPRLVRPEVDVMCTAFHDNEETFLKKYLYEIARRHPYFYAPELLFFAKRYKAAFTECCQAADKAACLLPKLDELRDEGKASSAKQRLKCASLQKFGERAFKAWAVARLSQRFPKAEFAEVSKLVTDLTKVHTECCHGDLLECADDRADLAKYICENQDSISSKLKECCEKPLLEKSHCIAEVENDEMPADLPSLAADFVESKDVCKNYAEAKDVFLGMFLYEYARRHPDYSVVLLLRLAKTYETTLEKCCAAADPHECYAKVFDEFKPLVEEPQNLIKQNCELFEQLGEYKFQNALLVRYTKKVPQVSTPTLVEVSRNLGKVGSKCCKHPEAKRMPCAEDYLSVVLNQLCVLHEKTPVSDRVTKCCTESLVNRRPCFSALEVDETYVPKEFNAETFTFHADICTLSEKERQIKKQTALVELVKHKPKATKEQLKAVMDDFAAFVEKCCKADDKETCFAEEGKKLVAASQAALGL", "assay": "HSA tryptophan fluorescence quenching", "type": "binding", "experimental": "For fluorescence measurements, the HSA concentration in Tris–HCl buffer was kept constant in all the samples, while the complex concentration was increased from 0.50 to 50 μM, and quenching of the emission intensity of the HSA tryptophan residues at 305 nm (excitation wavelength 270 nm) was monitored at different temperatures (25°C and 37°C). The experiments were carried out in triplicate and analysed using the classical Stern-Volmer equation. The binding constant (Kb) and number of complexes bound to HSA (n) were determined by plotting the double log graph of the fluorescence data using: log [(F0-F)/F] = log Kb + nlog[Q]. The thermodynamic parameter (ΔH) was calculated from equation: ln (K2/K1) = [(1/T1)-(1/T2)]ΔH/R, where K1 and K2 are the binding constants at temperatures T1 and T2, and R is the gas constant. Furthermore, the change in free energy (ΔG) and entropy (ΔS) were calculated from the following equation: ΔG = -RT lnK = ΔH − TΔS.\nHuman serum albumin (HSA) is the most abundant protein in the blood and cerebrospinal fluid and plays a fundamental role in the distribution of essential transition metal ions in the human body. Moreover, HSA is an important physiological transporter of the essential metal ions Cu^2+, and Zn^2+ in the bloodstream. […] The fluorescence spectrum is essentially that of tryptophan residue; contribution of tyrosine is relatively minor. In order to determine the protein binding affinity of complexes (1–4), tryptophan emission quenching experiments were carried out by adding the complexes in increasing concentration (0–50 μM) to HSA at two different temperatures and following the decrease in fluorescence intensities (Fig 6D). The results point out a good linearity at the two different temperatures. The binding constants, KSV, calculated from the Stern-Volmer equation are presented on Table 2."}, "[2]": {"system": "MDA-MB-231 cells", "assay": "Cell adhesion to ECM proteins", "type": "cell-based, human", "experimental": "The effects of complex (4) on the adhesion of MDA-MB-231 cells were analyzed in 96-well plates (Corning) as described earlier. Vitronectin (1.0 μg), laminin (0.3 μg) or fibronectin (0.3 μg) immobilized on the plates in a cell adhesion buffer (20 mM HEPES, 150 mM NaCl, 5 mM KCl, 1 mM MgSO4 and 1 mM MnCl2 pH 7.35), overnight at 4°C. Collagen type I (10 μg) was dissolved in acetic acid (0.1%) and coated on the wells. On the next day, wells were blocked with adhesion buffer containing 1% BSA solution for 1h and then washed with 100 μL per well of adhesion buffer. Cells (5 x 10^4/100 μL) were incubated for 30 min with different concentrations of the complex (4) at 37°C 5% CO2 and then plated and incubated under the same conditions for a further 1h. Then the non-adhered cells were gently removed by washing and attached cells were fixed with 100 μL 70% ethanol for 10 min. Cells were stained with 0.5% crystal violet for 20min and the excess dye was removed by washing with PBS. The stained cells were diluted in 100 μL of 1% solution of sodium dodecyl sulfate (SDS) for 30min and reading of the plates was performed on ELISA reader at 595 nm wavelength."}, "[3]": {"system": "MDA-MB-231 cells", "assay": "Phalloidin staining of F-actin cytoskeleton", "type": "cell-based, human", "settings": "30 min", "experimental": "To examine the effects of complex (4) on the F-actin cytoskeleton organization in MDA-MB-231 cells, Alexa Fluor® 488 Phalloidin was used to stain the F-actin fibers. MDA-MB-231 cells (5x10^4 cells/100 μL) were plated in 96-well plates and maintained at 37°C in a humidified incubator with 5% CO2 for 24 h. In the next day, cells were treated with 10, 20, 40 μM of complex (4) and incubated for 30 min. Next, cells were washed with PBS, fixed with 3.7% paraformaldehyde in PBS for 30 min and then permeabilized with 0.1% Triton-X 100 in PBS for 5min at room temperature. Blocking was performed with 2% BSA for 30 min, followed by the addition of Alexa Fluor 488 Phalloidin for 20 min. Cells were then stained with DAPI for nuclear labeling for 10min and finally washed again with PBS for three times. Images were obtained with an automated microscope ImageXpress® Micro XLS System (Molecular Devices)."}, "[4]": {"system": "MCF-10A cells", "assay": "Apoptosis by flow cytometry (PE-Annexin-V / 7AAD)", "type": "cell-based, human", "settings": "20 μM, 3 h", "experimental": "(§1) MDA-MB-231 and MCF-10A cells (1.0 x 10^5/mL) were seeded in 12-well plates in a complete DMEM medium and incubated for 24 h. After this period the medium was removed and cells were incubated or not (control) with different concentrations of complex (4), for 3 h at 37°C and 5% CO2. After treatment the plate was centrifuged at 2000 rpm for 5 min at 4°C, washed with PBS and resuspended in 400 μL of binding buffer from the kit. Cells were incubated with 10 μL of 7AAD and 10 μL of PE-Annexin-V for 15 min protected from light. After the incubation period the supernatant was removed and 400 μL of binding buffer were added to the wells. Cells were then removed from the wells with the aid of a scraper and transferred to flow cytometry tubes. The reading was performed in Accuri C6 flow cytometer (BD Biosciences) and fluorescence emitted by each dye was quantified using CellQuest software (BD Biosciences)."}, "[5]": {"system": "MDA-MB-231 cells", "assay": "Apoptosis by flow cytometry (PE-Annexin-V / 7AAD)", "type": "cell-based, human", "settings": "MDA-MB-231, 20 μM, 3 h", "experimental": "as §1"}, "[6]": {"system": "pBR322 plasmid DNA", "assay": "Agarose gel electrophoresis of plasmid DNA", "type": "binding", "settings": "Ri 0.50, 18 h, 37°C", "experimental": "Ten microliters of pBR322 plasmid DNA in a Tris-HCl buffer were incubated at 37°C for 18 h with molar ratios between 0.12 and 0.5. After incubation, 5 μL of each sample was separated by electrophoresis in a 1% agarose gel for 45 min at 100V using a Tris borate–EDTA buffer (TBE) and stained with ethidium bromide ([…] ethidium bromide per 40 mL agarose gel mixture). Samples of DNA with DMSO were used as controls. The DNA bands were visualized as an image using a UV light transilluminator (ChemiDoc MP, BioRad Laboratories).\nThe influence of the compounds on the tertiary structure of DNA was determined by their ability to modify the electrophoretic mobility of forms of pBR322 plasmid DNA (Fig 6C). Agarose gel electrophoresis was performed using pBR322 plasmid DNA in the absence and presence of the complexes. […] In Ri 0.12 and 0.25 complexes (1–3) show the corresponding open circular, linear and super coiled form. […] This means that the degree of super helicity of the DNA molecules has been altered, in the same way as that described previously for other coordination platinum(II) and palladium (II) compounds containing 7-azaindolyl ligand [36]."}},
  "data": [
    {"smiles": "CC(=O)[O-].F[P-](F)(F)(F)(F)F.[Ru+2].c1ccc(-c2ccccn2)nc1.c1ccc(P(CCCCP(c2ccccc2)c2ccccc2)c2ccccc2)cc1", "note": "[Complex (4), [Ru(CH3CO2)(dppb)(bipy)]PF6]", "values": [
      {"measurement": "Kq (HSA)", "setting": "[1]; T 298", "result": "4.95e+13", "unit": "M⁻¹ s⁻¹"},
      {"measurement": "Ksv (HSA)", "setting": "[1]; T 298", "result": "4.74 ± 0.70 x10^4 M^-1"},
      {"measurement": "n (number of binding sites, HSA)", "setting": "[1]; T 298", "result": 1.20},
      {"measurement": "ΔS (HSA)", "setting": "[1]; complex-HSA system", "result": 110.13, "unit": "J.mol^-1K"},
      {"measurement": "ΔH (HSA)", "setting": "[1]; from binding constants at 298 and 310", "result": 0.359, "unit": "kcal/mol"},
      {"measurement": "inhibition of cell adhesion to type I collagen", "setting": "[2]; 20 μM", "result": "approximately 35%"},
      {"measurement": "inhibition of cell adhesion to fibronectin, laminin and vitronectin", "setting": "[2]; 40 μM", "result": "about 65%"},
      {"measurement": "inhibition of cell adhesion to type I collagen", "setting": "[2]; 40 μM", "result": "~50", "unit": "%"},
      {"measurement": "effect on cell adhesion to fibronectin, laminin and vitronectin", "setting": "[2]; all concentrations tested", "result": "inhibited cell adhesion"},
      {"measurement": "effect on actin cytoskeleton structure", "setting": "[3]; 10, 20 and 40 μM", "result": "strongly modified the structure of the actin cytoskeleton"},
      {"measurement": "effect on cytoskeleton density", "setting": "[3]; 20 and 40 μM", "result": "decrease in cytoskeleton density"},
      {"measurement": "cells suffering apoptosis", "setting": "[4]", "result": 14.9, "unit": "%"},
      {"measurement": "cells suffering apoptosis", "setting": "[5]", "result": 74.4, "unit": "%"},
      {"measurement": "electrophoretic mobility of super coiled pBR322 band", "setting": "[6]", "result": "increased the electrophoretic mobility"}
    ]}
  ]
}
